Assay results from patent publication US20250186324A1, “SYNERGISTIC SKIN DEPIGMENTING COSMETIC COMPOSITION” (priority 2022, published 2025).

Legend:
DKK1 = DKK1 gene expression (real-time qPCR) in dermal fibroblasts; type: cell-based, human; details: 10 and 25 μM apigenin, 24 hours
Protocol: (§1) To assess the levels of key pigmentation regulatory markers in fibroblasts, dermal fibroblasts (Promocell, #C-12302) were cultured for 24 hours with the active ingredient apigenin. After the treatment, the RNA was extracted (Norgen, #17200) and real-time qPCR was performed (Takara, #R[…]) on the DKK1 and VEGF genes.

VEGF = VEGF gene expression (real-time qPCR) in dermal fibroblasts; type: cell-based, human; details: 10 and 25 μM apigenin, 24 hours
Protocol: as §1

Wnt pathway = Wnt pathway in melanocytes: melanogenesis-regulating gene expression after BIO stimulation (qPCR); type: cell-based, human; details: 0.1 μM BIO; 0.5 and 5 μM apigenin or 10 and 25 μM phloretin; 24 hours; genes TYRP1, DCT, PAX3, PMEL17
Protocol: After the treatment, the RNA was extracted (Norgen, #17200) and a real-time qPCR was performed (Takara, #R[…]) on the TYRP1, DCT, PAX3 and PMEL17 genes.

SCF pathway = SCF pathway in melanocytes: melanogenesis-regulating gene expression after CBD stimulation (qPCR); type: cell-based, human; details: 2.5 μM cannabidiol; 0.5 and 5 μM apigenin or 10 and 25 μM phloretin; 24 hours; genes DCT, PAX3
Protocol: In order to assess the inhibition of the SCF pathway in melanocytes, human epidermal melanocytes were cultured with 2.5 μM cannabidiol (CBD)+0.5 and 5 μM apigenin or 10 and 25 μM phloretin for 24 hours. After the treatment, the RNA was extracted (Norgen, #17200) and a real-time qPCR was performed (Takara, #R[…]) on the DCT and PAX3 genes.

miR-675 = miR-675 levels in melanocytes (real-time qPCR); type: cell-based; details: human epidermal melanocytes, 0.5 μM apigenin, 24 hours
Protocol: In order to assess the effect of miRNA levels in melanocytes, human epidermal melanocytes were cultured with 0.5 μM apigenin or 10 μM phloretin for 24 hours. After the treatment, the RNA was extracted (Norgen, #17200) and a real-time qPCR was performed (Takara, #638313) on miR-675.

skin hyperpigmentation = details: mice treated with UVB; cited from earlier work
tyrosinase = details: spectroscopy and chromatography; cited from earlier work

SMILES | DKK1 expression (DKK1) | VEGF expression (VEGF) | expression of melanogenesis-regulating genes after stimulation with BIO (Wnt pathway) | expression of the melanogenesis-regulating genes after stimulation with CBD (SCF pathway) | miR-675 levels (miR-675) | skin hyperpigmentation (skin hyperpigmentation) | action on tyrosinase (tyrosinase)
O=c1cc(-c2ccc(O)cc2)oc2cc(O)cc(O)c12 [apigenin, 5,7-dihydroxy-2-(4-hydroxyphenyl)-4H-1-benzopyran-4-one] | significantly induces | reduces | significantly reduce | significantly reduce | significantly increasing | inhibits | –
O=C(CCc1ccc(O)cc1)c1c(O)cc(O)cc1O [phloretin, 3-(4-hydroxyphenyl)-1-(2,4,6-trihydroxyphenyl)propane-1-one] | – | – | significantly reduce | significantly reduce | – | – | a tyrosinase substrate but also an inhibitor
